From publication PMC9505538, “P-Glycoprotein (MDR1/ABCB1) Restricts Brain Accumulation of the Novel EGFR Inhibitor EAI045 and Oral Elacridar Coadministration Enhances Its Brain Accumulation and Oral Exposure” (Pharmaceuticals, 2022)

Molecular target: T1, human ABCG2 (Homo sapiens, UniProt Q9UNQ0)
T1 construct: expressed in transfected cells; host or cells: MDCK-II cells, stably transduced, generated in the authors' institute
T1 sequence (Q9UNQ0 1-655): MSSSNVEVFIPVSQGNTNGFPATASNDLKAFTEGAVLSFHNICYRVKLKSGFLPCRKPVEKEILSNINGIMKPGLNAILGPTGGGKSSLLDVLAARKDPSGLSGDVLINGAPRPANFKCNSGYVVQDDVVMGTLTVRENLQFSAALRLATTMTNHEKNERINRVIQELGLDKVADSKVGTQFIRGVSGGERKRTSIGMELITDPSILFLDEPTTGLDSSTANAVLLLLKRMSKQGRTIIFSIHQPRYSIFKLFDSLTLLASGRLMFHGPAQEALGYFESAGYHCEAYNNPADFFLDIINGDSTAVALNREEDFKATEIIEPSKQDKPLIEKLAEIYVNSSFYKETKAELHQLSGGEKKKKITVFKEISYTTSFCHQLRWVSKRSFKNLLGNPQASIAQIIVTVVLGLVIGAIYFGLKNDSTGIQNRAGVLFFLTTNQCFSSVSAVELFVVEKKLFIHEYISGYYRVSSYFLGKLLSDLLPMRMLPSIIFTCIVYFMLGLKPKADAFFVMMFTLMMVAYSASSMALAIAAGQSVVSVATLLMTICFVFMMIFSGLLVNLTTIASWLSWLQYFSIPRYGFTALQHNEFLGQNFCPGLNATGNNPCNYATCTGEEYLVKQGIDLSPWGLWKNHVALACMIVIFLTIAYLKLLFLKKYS
Experiment: Transepithelial transport of EAI045, MDCK-II cells transduced with human ABCG2
Format: in vitro ADME
Details: for efflux ratio r (relative transport ratio): EAI045 5 μM
Protocol: Transport of EAI045 (5 μM) across epithelia was tested using cell layers of Madin–Darby Canine Kidney (MDCK-II) cells and derived clones expressing hABCB1, hABCG2, or mAbcg2 cDNA. […] In cells overexpressing hABCB1, there was clear transport of EAI045 in the apical direction (r = 5.5, Figure 1C). […] To evaluate the interaction between hABCG2 and mAbcg2 and EAI045, zosuquidar (5 μM) was added to inhibit any endogenous canine ABCB1. In cells overexpressing hABCG2, the BA transport of EAI045 was somewhat increased relative to the AB transport, resulting in an efflux ratio of 1.4 (Figure 1E).
Figure 1 In vitro transepithelial transport of EAI045 (5 μM) using MCDK-II parental cells (A,B) or transduced with human ABCB1 (C,D), human ABCG2 (E,F), or murine Abcg2 (G,H) cDNA. At t = 0 EAI045 was added in the donor compartment (either apical or basolateral). At 1, 2, and 4 h EAI045 was quantified in the acceptor compartment and the cumulative total transported amount per well was plotted (n = 3). Zosuquidar (5 μM) was added to inhibit the human and/or the endogenous ABCB1, while Ko143 (5 μM) was added to inhibit the human or murine ABCG2. r, relative transport ratio. […] Points, mean; bars, SD. TEXT PRINTED IN THE PICTURE: (A) no label printed: Parental: r = 1.7 | (B) no label printed: Parental + Zos.: r = 1.1 | (C) no label printed: hABCB1: r = 5.5 | (D) no label printed: hABCB1 + Zos.: r = 1.3 | (E) no label printed: hABCG2 + Zos.: r = 1.4 | (F) no label printed: hABCG2 + Zos. + Ko143: r = 1.1 | (G) no label printed: mAbcg2 + Zos.: r = 1.8 | (H) no label printed: mAbcg2 + Zos. + Ko143: r = 1.4
Madin–Darby Canine Kidney (MDCK-II) cells (ECACC 00062107) stably transduced with human (h) ABCB1, hABCG2, or mouse (m) Abcg2 cDNA were generated in our institute between 1998 and 2005. […] In short, cells were allowed to grow an intact monolayer in 3 days, which was monitored with transepithelial electrical resistance (TEER) measurements, both before and after the transport phase. […] Proper functionality of these cell lines was monitored by continual testing with a variety of drug substrates.

efflux ratio r (relative transport ratio) (hABCG2 + zosuquidar 5 μM): 1.4
efflux ratio r (relative transport ratio) (hABCG2 + zosuquidar 5 μM + Ko143 5 μM): 1.1
transport by human ABCG2 (in vitro): at best slightly transported
SMILES: O=C(Nc1nccs1)C(c1cc(F)ccc1O)N1Cc2ccccc2C1=O (stereo not drawn) [EAI045]
